One test deals with CML CD34+38- cells. Kind of test: Viability of CML CD34+38- cells. In kind it is cell-based, human. Particulars: 50 nM for 1 h, then drug-free medium 24 h.
The next test concerns ABI 1/2. The experiment in a line: Western blot of ABI 1/2 levels after carfilzomib. In kind it is cell-based. The following applies: carfilzomib at IC50 levels; cell lines and primary CD34+38- enriched cells. A general note: In western blotting, separated proteins are transferred to a membrane and probed.
Test [1] concerns caspase-3 activity in CML cell lines and primary samples. Kind of test: Caspase-3 activity. Particulars: pulse treatment 1 h at IC50 doses. It counts as cell-based.
In a further test the test system is CML cell lines. The experiment in a line: Cell viability of CML cell lines. It counts as cell-based. The following applies: read-out: IC50, viability.
Another test concerns normal CD34+ cells (NBM). Kind of test: LTC-IC assay, normal CD34+ cells. It counts as cell-based, human. Particulars: pulsed 1 h with 50 nM.
For test [2], the system named is A549 lung carcinoma cell line. The experiment in a line: Proliferation of A549 cells with or without IFN-γ. It counts as cell-based. Particulars: Homo sapiens.
In test [3] the test system is STAT5 or PI3K signaling pathways. The experiment in a line: Western blot of STAT5 and PI3K signaling after carfilzomib. It counts as cell-based. Particulars: carfilzomib at IC50 doses, 1 h pulse, fresh medium 24 h.
The next test concerns CML CD34+ cells. The experiment in a line: LTC-IC assay, CML CD34+ cells. It counts as cell-based, human. Particulars: pulsed 1 h with 50 nM.
For the next test, the system named is NBM CD34+38- cells. The experiment in a line: Viability of normal bone marrow CD34+38- cells. In kind it is cell-based, human. Particulars: 50 nM for 1 h, then drug-free medium 24 h.
For the next test, the system named is K562 cells. Kind of test: Proliferation of K562 cells with or without IFN-γ. It counts as cell-based. The following applies: Homo sapiens.
Another test concerns KCL22S cells. The experiment in a line: Proliferation of KCL22S cells with or without LMP7 siRNA. It counts as cell-based. Particulars: Homo sapiens, 24 h, read-out: IC50, proliferation, control KCL22S, continuous exposure for 24 h.
The next test concerns LAMA84S cells. Kind of test: Proliferation of LAMA84S cells with or without LMP7 siRNA. Particulars: Homo sapiens, 24 h, read-out: IC50, proliferation, control LAMA84S, continuous exposure for 24 h. In kind it is cell-based.
Test [4] concerns LMP7 expression in K562 cells. The experiment in a line: Induction of LMP7 expression by IFN-γ in K562 cells. In kind it is cell-based. The following applies: 100 U/ml IFN-γ for 72 h.
Test [5] relates to LMP7 expression in A549 cells. The experiment in a line: Induction of LMP7 expression by IFN-γ in A549 cells. It counts as cell-based. Particulars: 100 U/ml IFN-γ for 72 h.

Experimental findings from PMC3940921 (Oncogenesis, 2014) are described below.

Read-outs that look alike come from different tables or passages of the source.

As for `CC(C)C[C@H](NC(=O)[C@H](CCc1ccccc1)NC(=O)CN1CCOCC1)C(=O)N[C@@H](Cc1ccccc1)C(=O)N[C@@H](CC(C)C)C(=O)[C@@]1(C)CO1` [carfilzomib], the “viability reduced by” value stood at 39±1% in the test on CML CD34+38- cells and 19±2% with NBM CD34+38- cells. Further, the “increased expression of ABI 1/2” value in the test with ABI 1/2 was 2.2–6.8 fold. In test [1], the caspase-3 activity result is on record as “increase in caspase-3 activity”. Moreover, the IC50 in the test with CML cell lines is 20 to 79 nM; in test [2] (A549, 24 h, read-out: IC50, proliferation) it was 92 nM; in [2] (A549, read-out: IC50, proliferation), 10 nM; in the test with K562 cells (K562, 24 h, read-out: IC50, proliferation) it was 608 nM; with K562 cells (K562, read-out: IC50, proliferation), 179 nM; in the test on KCL22S cells, 5 nM. Further, the IC50 with LAMA84S cells was 7 nM. Besides, the “colony formation reduced by” value in the test with normal CD34+ cells (NBM) is listed as 44±7%; in the test with CML CD34+ cells, 58±11%. Moreover, the “effect on STAT5 or PI3K signaling pathways” value in [3] is “no effect”.

B1: IFN-γ: interferon-γ, used at 100 U/ml for 72 h to induce immunoproteasome expression (protein, UniProt P01579 24-161, looked up)
Interferon gamma: QDPYVKEAENLKKYFNAGHSDVADNGTLFLGILKNWKEESDRKIMQSQIVSFYFKLFKNFKDDQSIQKSVETIKEDMNVKFFNSNKKKRDDFEKLTNYSVTDLNVQRKAIHELIQVMAELSPAAKTGKRKRSQMLFRG
For the molecule B1, the “increase in the expression of LMP7” value in test [4] is given as “fourfold”; in [5] it was 10 fold.
